Measured values: patent US12077503B2, “Substituted cyclic amides and their use as herbicides” (FMC CORPORATION, priority 2015, dated 2024)

Tests used:
Format in all cases: in vivo
corn (Zea mays) [1] = assay: Test G Pre-Emergence Protocol; conditions: Zea mays, pre-emergence, 312 h, evaluated after 13 days; for plant injury at 15.625 g/ha: 15.625 g ai/ha; for plant injury at 15.625 g/ha / plant injury at 250 g/ha: read-out: Corn damage rating (100=total damage to plant; 0=no damage to plant); for plant injury at 62.5 g/ha: 62.5 g ai/ha, 100=total damage to plant, 0=no damage to plant, read-out: plant damage rating, Corn; for plant injury at 250 g/ha: 250 g ai/ha
Outline: (§1)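 Pots of seeds in standard soil were grown for one day in a glasshouse (24/16 °C day/night, 14 h light, 65% humidity), then sprayed with compound in acetone/water 50:50 with 0.5% Tween 20 at 15.625, 62.5 or 250 g/ha. Damage was scored after 13 days on a 0 (none) to 100 (total) scale.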

[2] = test system: velvetleaf (Abutilon theophrasti); assay: Test G Pre-Emergence Protocol; conditions: Abutilon theophrasti, pre-emergence, 312 h, evaluated after 13 days; for pest or weed control at 15.625 g/ha: 15.625 g ai/ha; for pest or weed control at 15.625 g/ha / pest or weed control at 250 g/ha: read-out: Velvetleaf damage rating (100=total damage to plant; 0=no damage to plant); for pest or weed control at 62.5 g/ha: 62.5 g ai/ha, 100=total damage to plant, 0=no damage to plant, read-out: plant damage rating, Velvetleaf; for pest or weed control at 250 g/ha: 250 g ai/ha
Outline: as §1

[3] = test system: giant foxtail (Setaria faberi); assay: Test G Pre-Emergence Protocol; conditions: Setaria faberi, pre-emergence, 312 h, evaluated after 13 days; for pest or weed control at 15.625 g/ha: 15.625 g ai/ha; for pest or weed control at 15.625 g/ha / pest or weed control at 250 g/ha: read-out: Foxtail, Giant damage rating (100=total damage to plant; 0=no damage to plant); for pest or weed control at 62.5 g/ha: 62.5 g ai/ha, 100=total damage to plant, 0=no damage to plant, read-out: plant damage rating, Foxtail, Giant; for pest or weed control at 250 g/ha: 250 g ai/ha
Outline: as §1

[4] = test system: redroot pigweed (Amaranthus retroflexus); assay: Test G Pre-Emergence Protocol; conditions: Amaranthus retroflexus, pre-emergence, 312 h, evaluated after 13 days; for pest or weed control at 15.625 g/ha: 15.625 g ai/ha; for pest or weed control at 15.625 g/ha / pest or weed control at 250 g/ha: read-out: Pigweed, Redroot damage rating (100=total damage to plant; 0=no damage to plant); for pest or weed control at 62.5 g/ha: 62.5 g ai/ha, 100=total damage to plant, 0=no damage to plant, read-out: plant damage rating, Pigweed, Redroot; for pest or weed control at 250 g/ha: 250 g ai/ha
Outline: as §1

[5] = test system: ivy-leaved morning glory (Ipomoea hederacea); assay: Test G Pre-Emergence Protocol; conditions: Ipomoea, pre-emergence, 312 h, evaluated after 13 days; for pest or weed control at 15.625 g/ha: 15.625 g ai/ha, read-out: Morning-glory, Ivy-leaved damage rating (100=total damage to plant; 0=no damage to plant); for pest or weed control at 62.5 g/ha: 62.5 g ai/ha, 100=total damage to plant, 0=no damage to plant, read-out: plant damage rating, Morningglory, Ivy-leaved; for pest or weed control at 250 g/ha: 250 g ai/ha, read-out: Morningglory, Ivy-leaved damage rating (100=total damage to plant; 0=no damage to plant)
Outline: as §1

[6] = test system: barnyardgrass (Echinochloa crus-galli); assay: Test G Pre-Emergence Protocol; conditions: Echinochloa crus-galli, pre-emergence, 312 h, evaluated after 13 days; for pest or weed control at 15.625 g/ha: 15.625 g ai/ha, read-out: Barnyard grass damage rating (100=total damage to plant; 0=no damage to plant); for pest or weed control at 62.5 g/ha: 62.5 g ai/ha, 100=total damage to plant, 0=no damage to plant, read-out: plant damage rating, Barnyardgrass; for pest or weed control at 250 g/ha: 250 g ai/ha, read-out: Barnyardgrass damage rating (100=total damage to plant; 0=no damage to plant)
Outline: as §1

corn (Zea mays) [7] = assay: Test G Post-Emergence Protocol; conditions: Zea mays, post-emergence, 312 h; for plant injury at 15.625 g/ha: 15.625 g ai/ha, evaluated after 13 days (100=total damage to plant; 0=no damage to plant), read-out: Corn damage rating; for plant injury at 62.5 g/ha: 62.5 g ai/ha, read-out: Corn damage rating (100=total damage to plant; 0=no damage to plant); for plant injury at 62.5 g/ha / plant injury at 250 g/ha: evaluated after 13 days; for plant injury at 250 g/ha: 250 g ai/ha, read-out: damage to plant, Corn (100=total damage to plant; 0=no damage to plant)
Outline: (§2)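 Values are percent visual injury at 13 days after treatment (0 none, 100 total). Treatment was a post-emergence spray at 15.625, 62.5 or 250 g/ha on 8-day-old pot plants kept at 24/16 °C.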

[8] = test system: velvetleaf (Abutilon theophrasti); assay: Test G Post-Emergence Protocol; conditions: Abutilon theophrasti, post-emergence, 312 h; for pest or weed control at 15.625 g/ha: 15.625 g ai/ha, evaluated after 13 days (100=total damage to plant; 0=no damage to plant), read-out: Velvetleaf damage rating; for pest or weed control at 62.5 g/ha: 62.5 g ai/ha, read-out: Velvetleaf damage rating (100=total damage to plant; 0=no damage to plant); for pest or weed control at 62.5 g/ha / pest or weed control at 250 g/ha: evaluated after 13 days; for pest or weed control at 250 g/ha: 250 g ai/ha, read-out: damage to plant, Velvetleaf (100=total damage to plant; 0=no damage to plant)
Outline: as §2

[9] = test system: giant foxtail (Setaria faberi); assay: Test G Post-Emergence Protocol; conditions: Setaria faberi, post-emergence, 312 h; for pest or weed control at 15.625 g/ha: 15.625 g ai/ha, evaluated after 13 days (100=total damage to plant; 0=no damage to plant), read-out: Foxtail, Giant damage rating; for pest or weed control at 62.5 g/ha: 62.5 g ai/ha, read-out: Foxtail, Giant damage rating (100=total damage to plant; 0=no damage to plant); for pest or weed control at 62.5 g/ha / pest or weed control at 250 g/ha: evaluated after 13 days; for pest or weed control at 250 g/ha: 250 g ai/ha, read-out: damage to plant, Foxtail, Giant (100=total damage to plant; 0=no damage to plant)
Outline: as §2

[10] = test system: redroot pigweed (Amaranthus retroflexus); assay: Test G Post-Emergence Protocol; conditions: Amaranthus retroflexus, post-emergence, 312 h; for pest or weed control at 15.625 g/ha: 15.625 g ai/ha, evaluated after 13 days (100=total damage to plant; 0=no damage to plant), read-out: Pigweed, Redroot damage rating; for pest or weed control at 62.5 g/ha: 62.5 g ai/ha, read-out: Pigweed, Redroot damage rating (100=total damage to plant; 0=no damage to plant); for pest or weed control at 62.5 g/ha / pest or weed control at 250 g/ha: evaluated after 13 days; for pest or weed control at 250 g/ha: 250 g ai/ha, read-out: damage to plant, Pigweed, Redroot (100=total damage to plant; 0=no damage to plant)
Outline: as §2

[11] = test system: ivy-leaved morning glory (Ipomoea hederacea); assay: Test G Post-Emergence Protocol; conditions: Ipomoea, post-emergence, 312 h; for pest or weed control at 15.625 g/ha: 15.625 g ai/ha, evaluated after 13 days (100=total damage to plant; 0=no damage to plant), read-out: Morningglory, Ivy-leaved damage rating; for pest or weed control at 62.5 g/ha: 62.5 g ai/ha, read-out: Morningglory, Ivy-leaved damage rating (100=total damage to plant; 0=no damage to plant); for pest or weed control at 62.5 g/ha / pest or weed control at 250 g/ha: evaluated after 13 days; for pest or weed control at 250 g/ha: 250 g ai/ha, read-out: damage to plant, Morningglory, Ivy-leaved (100=total damage to plant; 0=no damage to plant)
Outline: as §2

[12] = test system: barnyardgrass (Echinochloa crus-galli); assay: Test G Post-Emergence Protocol; conditions: Echinochloa crus-galli, post-emergence, 312 h; for pest or weed control at 15.625 g/ha: 15.625 g ai/ha, evaluated after 13 days (100=total damage to plant; 0=no damage to plant), read-out: Barnyardgrass damage rating; for pest or weed control at 62.5 g/ha: 62.5 g ai/ha, read-out: Barnyardgrass damage rating (100=total damage to plant; 0=no damage to plant); for pest or weed control at 62.5 g/ha / pest or weed control at 250 g/ha: evaluated after 13 days; for pest or weed control at 250 g/ha: 250 g ai/ha, read-out: damage to plant, Barnyardgrass (100=total damage to plant; 0=no damage to plant)
Outline: as §2

Row | SMILES | plant injury at 15.625 g/ha (corn (Zea mays) [1]) | plant injury at 62.5 g/ha (corn (Zea mays) [1]) | plant injury at 250 g/ha (corn (Zea mays) [1]) | pest or weed control at 15.625 g/ha [2] | pest or weed control at 62.5 g/ha [2] | pest or weed control at 250 g/ha [2] | pest or weed control at 15.625 g/ha [3] | pest or weed control at 62.5 g/ha [3] | pest or weed control at 250 g/ha [3] | pest or weed control at 15.625 g/ha [4] | pest or weed control at 62.5 g/ha [4] | pest or weed control at 250 g/ha [4] | pest or weed control at 15.625 g/ha [5] | pest or weed control at 62.5 g/ha [5] | pest or weed control at 250 g/ha [5] | pest or weed control at 15.625 g/ha [6] | pest or weed control at 62.5 g/ha [6] | pest or weed control at 250 g/ha [6] | plant injury at 15.625 g/ha (corn (Zea mays) [7]) | plant injury at 62.5 g/ha (corn (Zea mays) [7]) | other results
1 | CN1C[C@@H](c2ccc(C(F)(F)F)cc2)[C@H](C(=O)Nc2cc(Cl)n[nH]2)C1=O (racemic) [Compound 1632] | 0% | 0% | 0% | 0% | 0% | 0% | 0% | 0% | 0% | 0% | 0% | 0% | 0% | 0% | 0% | 0% | 0% | 0% | 0% | 0% | plant injury at 250 g/ha (corn (Zea mays) [7]): 0%; pest or weed control at 15.625 g/ha [8]: 0%; pest or weed control at 62.5 g/ha [8]: 0%; pest or weed control at 250 g/ha [8]: 0%; pest or weed control at 15.625 g/ha [9]: 0%; pest or weed control at 62.5 g/ha [9]: 0%; pest or weed control at 250 g/ha [9]: 20%; pest or weed control at 15.625 g/ha [10]: 0%; pest or weed control at 62.5 g/ha [10]: 0%; pest or weed control at 250 g/ha [10]: 20%; pest or weed control at 15.625 g/ha [11]: 0%; pest or weed control at 62.5 g/ha [11]: 0%; pest or weed control at 250 g/ha [11]: 0%; pest or weed control at 15.625 g/ha [12]: 0%; pest or weed control at 62.5 g/ha [12]: 0%; pest or weed control at 250 g/ha [12]: 10%
2 | Cc1cccc(NC(=O)[C@@H]2C(=O)N(C)C[C@H]2c2ccc(C(F)(F)F)cc2)c1[N+](=O)[O-] (racemic) [Compound 1636] | 0% | 0% | 0% | 0% | 0% | 0% | 0% | 40% | 60% | 0% | 0% | 0% | 0% | 0% | 0% | 0% | 10% | 30% | 0% | 0% | plant injury at 250 g/ha (corn (Zea mays) [7]): 0%; pest or weed control at 15.625 g/ha [8]: 0%; pest or weed control at 62.5 g/ha [8]: 0%; pest or weed control at 250 g/ha [8]: 0%; pest or weed control at 15.625 g/ha [9]: 50%; pest or weed control at 62.5 g/ha [9]: 70%; pest or weed control at 250 g/ha [9]: 70%; pest or weed control at 15.625 g/ha [10]: 0%; pest or weed control at 62.5 g/ha [10]: 0%; pest or weed control at 250 g/ha [10]: 0%; pest or weed control at 15.625 g/ha [11]: 0%; pest or weed control at 62.5 g/ha [11]: 0%; pest or weed control at 250 g/ha [11]: 0%; pest or weed control at 15.625 g/ha [12]: 10%; pest or weed control at 62.5 g/ha [12]: 50%; pest or weed control at 250 g/ha [12]: 50%
3 | CN1C[C@@H](c2ccc(C(F)(F)F)cc2)[C@H](C(=O)Nc2ccnc(C(F)(F)F)c2)C1=O (racemic) [Compound 1638] | 0% | 0% | 0% | 0% | 0% | 0% | 0% | 0% | 0% | 0% | 0% | 0% | 0% | 0% | 0% | 0% | 0% | 0% | 0% | 0% | plant injury at 250 g/ha (corn (Zea mays) [7]): 0%; pest or weed control at 15.625 g/ha [8]: 0%; pest or weed control at 62.5 g/ha [8]: 0%; pest or weed control at 250 g/ha [8]: 0%; pest or weed control at 15.625 g/ha [9]: 0%; pest or weed control at 62.5 g/ha [9]: 0%; pest or weed control at 250 g/ha [9]: 0%; pest or weed control at 15.625 g/ha [10]: 0%; pest or weed control at 62.5 g/ha [10]: 0%; pest or weed control at 250 g/ha [10]: 0%; pest or weed control at 15.625 g/ha [11]: 0%; pest or weed control at 62.5 g/ha [11]: 0%; pest or weed control at 250 g/ha [11]: 0%; pest or weed control at 15.625 g/ha [12]: 0%; pest or weed control at 62.5 g/ha [12]: 0%; pest or weed control at 250 g/ha [12]: 0%
